Reference: patent publication US7928227B2, “2-oxo-1,3,5-perhydrotriazapine derivatives useful in the treatment of hyper-proliferative, angiogenesis, and inflammatory disorders” (Bayer Healthcare LLC, priority 2003, dated 2011)

Columns and labels:
[1] = Pharmacokinetics in the mouse (plasma levels by LC-MS after oral gavage of Example 1); type: in vivo; settings: for AUC / Cmax / concentration at 0.5 h / concentration at 1 h / concentration at 5 h: mouse, female ICr mice, single oral gavage of Example 1 at 30 mg/kg, plasma; for concentration at 0.5 h: 0.5 hours post dosing; for concentration at 1 h: 1 hour post dosing; for concentration at 5 h: 5 hours post dosing
Protocol: Female ICr mice received single doses of Example 1 by oral gavage at 30 mg/kg body weight. The vehicle used for administration consisted of 12.5% Cremophor, 12.5% ethanol and 75% saline. Blood samples were collected by cardiac puncture under anesthesia and plasma was isolated by centrifugation. Three animals were used for each time point of 0.5, 1 and 5 hours post dosing. Plasma levels of Example 1 and Intermediate 1 were measured by LC-MS.
Calibration samples (1 to 5,000 ng/mL) were prepared by spiking drug-free mouse plasma with known concentrations of Example 1 and Intermediate 1 and then processed with the study samples. An internal standard (close analog) was spiked at a final concentration of 100 ng/ml. Plasma samples were extracted via protein precipitation using acetonitrile (3:1). After vortexing for 1 minute, samples were centrifuged at 2500 rpm for 15 minutes. Supernatant was transferred to 96-well microtiter plates for LC-MS analysis. Analytes (Example 1 and Intermediate 1) and the internal standard were monitored using MRM transitions consisting of their protonated molecular ions to prominent fragment ions (Example 1 m/z 520 to m/z 270; Intermediate 1 m/z 465 to 252; internal standard m/z 469 to m/z 256). The calibration curve was constructed using least squares linear regression and utilized peak area ratios of the analyte and internal standard. Pharmacokinetic analysis of the measured plasma concentrations was conducted using the Watson® Drug Metabolism Laboratory Information Management System (Innaphase Corp, Philadelphia, Pa.). […] By changing the nature of substituent Q in Formula (I), it is possible to impact the stability, i.e., the speed of hydrolysis) of the prodrug, and therefore to modulate the plasma exposure to the pharmacologically active compound. High stabilities will lead to extended release of the drug, while low stabilities will contribute to high Cmax and short duration of action.

Structure (SMILES) | melting point [°C] | AUC [1] [µM·h] | Cmax [1] [µM] | concentration at 0.5 h [1] [µM] | concentration at 1 h [1] [µM] | concentration at 5 h [1] [µM] | Absorption in mice ([1]; oral gavage of Example 1 at 30 mg/kg, result in words) | Levels detected in plasma after oral administration of the pro-drug Example 1 ([1]; mice, oral gavage of Example 1 at 30 mg/kg, result in words)
CNC(=O)c1cc(Oc2ccc(N3CN(C)CN(c4ccc(Cl)c(C(F)(F)F)c4)C3=O)cc2)ccn1 [Example 1] | 82 to 85 | 53.1 | 13 | 12.1 | 13 | 9.4 | very well absorbed | 
CNC(=O)c1cc(Oc2ccc(NC(=O)Nc3ccc(Cl)c(C(F)(F)F)c3)cc2)ccn1 [Intermediate 1, N-(4-chloro-3(trifluoromethyl)phenyl)-N′-(4-(2-(N-methylcarbamoyl)-4-pyridyloxy)phenyl)urea, reference compound] |  | 1 | 0.3 | 0.1 | 0.2 | 0.5 |  | significant levels
